Measurements taken from US20110039763A1, “TARGETED ANTIMICROBIAL MOIETIES” (C3 JIAN, INC., priority 2009, published 2011).
Entries after “also recorded” stand apart in the source; their conditions may differ. Ends that are not written are not given here.

Columns and labels:
microorganisms [1] = assay: Targeting peptide binding to target microorganisms (Tables 3, 10, 12); settings: microorganism(s) the targeting peptide binds; binding in aqueous buffers varied with peptide solubility, preferably 1x PBS
microorganisms [2] = assay: Peptide activities: targeting/binding, antimicrobial, growth or phenotype altering (Tables 7, 8); type: cell-based; settings: peptides having multiple activities
microorganisms [3] = assay: Morphology, biofilm and growth disrupting peptides (Table 5); type: cell-based; set-up: key: A: Peptide aggregates; B: Less hyphal formation; Clumps; Diffuse clumps and small polyps; F: Diffuse growth; H: Thin; I: Growth inhibition; Microcolony formation; Rippled; Small polyps; Thick; W: Halo formation on top, microlonies on bottom
Description: In certain embodiments peptides that induce alterations in phenotype or other biological activities can also be used as antimicrobial effector moieties.

PF-518: peptide having multiple activities (SFYSKYSRYIDNLAGAIFLFF; Peptide with targeting and/or antimicrobial activity)
Target(s) (microorganisms [1]): S. epidermidis and E. coli and P. aeruginosa and C. albicans and MRSA and S. pneumoniae and E. faecalis
Activities (microorganisms [2]): G B
Organism, effect (microorganisms [3]; E. coli): E. coli (R)
Organism, effect (microorganisms [3]; E. faecalis): E. faecalis (C)
Organism, effect (microorganisms [3]; MRSA): MRSA (C)
Organism, effect (microorganisms [3]; S. epidermidis): S. epidermidis (C)
Organism, effect (microorganisms [3]; S. pneumoniae): S. pneumoniae (M)

PF-519: peptide having multiple activities (YLVYSGVLATAAAF-NH2)
Target(s) (microorganisms [1]): M. luteus; also recorded: E. faecalis; also recorded: C. jeikeium
Activities (microorganisms [2]): G B
Organism, effect (microorganisms [3]; E. coli): E. coli (R)
Organism, effect (microorganisms [3]; E. faecalis): E. faecalis (C)
Organism, effect (microorganisms [3]; MRSA): MRSA (C)
Organism, effect (microorganisms [3]; S. pneumoniae): S. pneumoniae (S)

PF-528: peptide having multiple activities (LVDVVVLIRRHLPKSCS-NH2)
Target(s) (microorganisms [1]): S. epidermidis and P. aeruginosa and C. albicans and MRSA and S. pneumoniae and E. faecalis
Activities (microorganisms [2]): G B
Organism, effect (microorganisms [3]; C. albicans): C. albicans (C)
Organism, effect (microorganisms [3]; E. coli): E. coli (H)
Organism, effect (microorganisms [3]; MRSA): MRSA (H)
Organism, effect (microorganisms [3]; S. epidermidis): S. epidermidis (H)
Organism, effect (microorganisms [3]; S. pneumoniae): S. pneumoniae (R)

PF-540: peptide having multiple activities (KSILILIKVIFIGQTTIIL; Peptide with targeting and/or antimicrobial activity)
Target(s) (microorganisms [1]): C. albicans
Activities (microorganisms [2]): G B
Organism, effect (microorganisms [3]; E. coli): E. coli (R)
Organism, effect (microorganisms [3]; MRSA): MRSA (H)
Organism, effect (microorganisms [3]; S. epidermidis): S. epidermidis (H)
Organism, effect (microorganisms [3]; S. pneumoniae): S. pneumoniae (R)

PF-542: peptide having multiple activities (KKDNPSLNDQDKNAVLNLLALAK; Peptide with targeting and/or antimicrobial activity)
Target(s) (microorganisms [1]): C. jeikeium
Activities (microorganisms [2]): G B
Organism, effect (microorganisms [3]; S. pneumoniae): S. pneumoniae (H)

PF-546: peptide having multiple activities (PIIAPTIKTQIQ; Peptide with targeting and/or antimicrobial activity)
Target(s) (microorganisms [1]): S. epidermidis; also recorded: E. coli; also recorded: C. albicans; also recorded: S. pneumoniae; also recorded: E. faecalis; also recorded: C. jeikeium
Activities (microorganisms [2]): G B
Organism, effect (microorganisms [3]; C. jeikeium): C. jeikeium (D)
Organism, effect (microorganisms [3]; E. coli): E. coli (R)
Organism, effect (microorganisms [3]; E. faecalis): E. faecalis (D)
Organism, effect (microorganisms [3]; MRSA): MRSA (D)
Organism, effect (microorganisms [3]; S. epidermidis): S. epidermidis (D)
Organism, effect (microorganisms [3]; S. pneumoniae): S. pneumoniae (D)

PF-549: peptide having multiple activities (TGIGPIARPIEHGLDS; Peptide with targeting and/or antimicrobial activity)
Target(s) (microorganisms [1]): E. coli; also recorded: C. albicans; also recorded: S. pneumoniae; also recorded: C. jeikeium
Activities (microorganisms [2]): G B
Organism, effect (microorganisms [3]; B. subtilis): B. subtilis (D)
Organism, effect (microorganisms [3]; MRSA): MRSA (C)

PF-550: peptide having multiple activities (STENGWQEFESYADVGVDPRRYVPL; Peptide with targeting and/or antimicrobial activity)
Target(s) (microorganisms [1]): S. pneumoniae
Activities (microorganisms [2]): G B
Organism, effect (microorganisms [3]; B. subtilis): B. subtilis (D)

PF-551: peptide having multiple activities (QVKEKRREIELQFRDAEKKLEASVQAE; Peptide with targeting and/or antimicrobial activity)
Target(s) (microorganisms [1]): S. pneumoniae
Activities (microorganisms [2]): G B
Organism, effect (microorganisms [3]; MRSA): MRSA (C)

PF-552: peptide having multiple activities (ELDKADAALGPAKNLAPLDVINRS; Peptide with targeting and/or antimicrobial activity)
Target(s) (microorganisms [1]): S. pneumoniae
Activities (microorganisms [2]): G B
Organism, effect (microorganisms [3]; B. subtilis): B. subtilis (D)

PF-553: peptide having multiple activities (LTIVGNALQQKNQKLLLNQKKITSLG; Peptide with targeting and/or antimicrobial activity)
Target(s) (microorganisms [1]): S. epidermidis and E. coli and P. aeruginosa and C. albicans and MRSA and S. pneumoniae and C. jeikeium
Activities (microorganisms [2]): G B
Organism, effect (microorganisms [3]; B. subtilis): B. subtilis (D)
Organism, effect (microorganisms [3]; C. jeikeium): C. jeikeium (R)
Organism, effect (microorganisms [3]; MRSA): MRSA (M)
Organism, effect (microorganisms [3]; S. pneumoniae): S. pneumoniae (R)

PF-554: peptide having multiple activities (AKNFLTRTAEEIGEQAVREGNINGP; Peptide with targeting and/or antimicrobial activity)
Target(s) (microorganisms [1]): S. pneumoniae
Activities (microorganisms [2]): G B
Organism, effect (microorganisms [3]; B. subtilis): B. subtilis (D)

PF-557: peptide having multiple activities (AANKAREQAAAEAKRKAEEQAR; Peptide with targeting and/or antimicrobial activity)
Target(s) (microorganisms [1]): S. pneumoniae
Activities (microorganisms [2]): G B
Organism, effect (microorganisms [3]; B. subtilis): B. subtilis (D)

PF-558: peptide having multiple activities (ADAPPPLIVRYS; Peptide with targeting and/or antimicrobial activity)
Target(s) (microorganisms [1]): S. epidermidis; also recorded: E. coli; also recorded: C. albicans; also recorded: C. jeikeium; also recorded: C. jejuni
Activities (microorganisms [2]): G B
Organism, effect (microorganisms [3]; B. subtilis): B. subtilis (D)
Organism, effect (microorganisms [3]; C. jejuni): C. jejuni (H)
Organism, effect (microorganisms [3]; MRSA): MRSA (C)
Organism, effect (microorganisms [3]; S. epidermidis): S. epidermidis (M)
Organism, effect (microorganisms [3]; S. pneumoniae): S. pneumoniae (R)

PF-559: peptide having multiple activities (SRPGKPGGVSIDVSRDRQDILSNYP; Peptide with targeting and/or antimicrobial activity)
Target(s) (microorganisms [1]): S. epidermidis; also recorded: M. luteus; also recorded: C. albicans; also recorded: C. jeikeium; also recorded: C. jejuni
Activities (microorganisms [2]): G B
Organism, effect (microorganisms [3]; B. subtilis): B. subtilis (C)
Organism, effect (microorganisms [3]; C. jejuni): C. jejuni (A)

PF-560: peptide having multiple activities (FGNPFRGFTLAMEADFKKRK; Peptide with targeting and/or antimicrobial activity)
Target(s) (microorganisms [1]): S. epidermidis; also recorded: M. luteus; also recorded: E. coli; also recorded: S. pneumoniae; also recorded: C. jeikeium; also recorded: C. jejuni
Activities (microorganisms [2]): G B
Organism, effect (microorganisms [3]; B. subtilis): B. subtilis (D)
Organism, effect (microorganisms [3]; C. jejuni): C. jejuni (A)
Organism, effect (microorganisms [3]; MRSA): MRSA (C)
Organism, effect (microorganisms [3]; S. pneumoniae): S. pneumoniae (R)

PF-563: peptide having multiple activities (RPELDNELDVVQNSASLDKLQASYN; Peptide with targeting and/or antimicrobial activity)
Target(s) (microorganisms [1]): S. epidermidis; also recorded: M. luteus; also recorded: C. jeikeium
Activities (microorganisms [2]): G B
Organism, effect (microorganisms [3]; B. subtilis): B. subtilis (D)
Organism, effect (microorganisms [3]; C. jejuni): C. jejuni (H)
Organism, effect (microorganisms [3]; S. pneumoniae): S. pneumoniae (H)

PF-564: peptide having multiple activities (TIILNDQINSLQERLNKLNAETDRR; Peptide with targeting and/or antimicrobial activity)
Target(s) (microorganisms [1]): S. epidermidis; also recorded: C. albicans; also recorded: S. pneumoniae; also recorded: C. jeikeium
Activities (microorganisms [2]): G B
Organism, effect (microorganisms [3]; B. subtilis): B. subtilis (D)
Organism, effect (microorganisms [3]; C. jeikeium): C. jeikeium (R)
Organism, effect (microorganisms [3]; C. jejuni): C. jejuni (R)
Organism, effect (microorganisms [3]; MRSA): MRSA (C)

PF-566: peptide having multiple activities (EAQQVTQQLGADFNAITTPTATKV; Peptide with targeting and/or antimicrobial activity)
Target(s) (microorganisms [1]): P. mirabilis; also recorded: S. pneumoniae
Activities (microorganisms [2]): G B
Organism, effect (microorganisms [3]; B. subtilis): B. subtilis (C)
Organism, effect (microorganisms [3]; C. jeikeium): C. jeikeium (C)
Organism, effect (microorganisms [3]; C. jejuni): C. jejuni (D)
Organism, effect (microorganisms [3]; M. luteus): M. luteus (D)
Organism, effect (microorganisms [3]; MRSA): MRSA (M)
Organism, effect (microorganisms [3]; S. pneumoniae): S. pneumoniae (D)

PF-567: peptide having multiple activities (QQRVKAVDASLSQVSTQVSGAVASA; Peptide with targeting and/or antimicrobial activity)
Target(s) (microorganisms [1]): S. epidermidis and P. aeruginosa and C. albicans and MRSA and S. pneumoniae and C. jeikeium
Activities (microorganisms [2]): G B
Organism, effect (microorganisms [3]; C. jeikeium): C. jeikeium (C)
Organism, effect (microorganisms [3]; C. jejuni): C. jejuni (D)
Organism, effect (microorganisms [3]; M. luteus): M. luteus (C)
Organism, effect (microorganisms [3]; MRSA): MRSA (D)
Organism, effect (microorganisms [3]; S. pneumoniae): S. pneumoniae (D)

PF-569: peptide having multiple activities (KSKISEYTEKEFLEFVEDIYTNNK; Peptide with targeting and/or antimicrobial activity)
Target(s) (microorganisms [1]): M. luteus; also recorded: P. mirabilis; also recorded: S. pneumoniae; also recorded: E. faecalis; also recorded: C. jeikeium
Activities (microorganisms [2]): G B
Organism, effect (microorganisms [3]; B. subtilis): B. subtilis (D)

PF-572: peptide having multiple activities (WRASKGLPGFKAG; Peptide with targeting and/or antimicrobial activity)
Target(s) (microorganisms [1]): S. epidermidis; also recorded: M. luteus; also recorded: E. coli; also recorded: S. pneumoniae; also recorded: C. jeikeium
Activities (microorganisms [2]): G B
Organism, effect (microorganisms [3]; B. subtilis): B. subtilis (D)
Organism, effect (microorganisms [3]; S. pneumoniae): S. pneumoniae (R)

PF-573: peptide having multiple activities (EKKLIVKLIDSIGKSHEEIVGAG; Peptide with targeting and/or antimicrobial activity)
Target(s) (microorganisms [1]): S. epidermidis; also recorded: S. pneumoniae
Activities (microorganisms [2]): G B
Organism, effect (microorganisms [3]; S. pneumoniae): S. pneumoniae (C)
